Results reported in article PMC3731160 (ACS medicinal chemistry letters, 2013).
Converted amounts (≈) assume the structure as drawn. Read-outs that look alike come from different tables or passages of the source.

Experiments:
EP4 receptor = EP4 receptor (Homo sapiens, UniProt P35408); conditions: for inhibition of EP4 receptor: up to 40 µM, agonist saturated conditions
EP2 receptor = EP2 receptor (Homo sapiens, UniProt P43116); test: PGE2-induced cAMP accumulation; assay type: cell-based; conditions: competitive antagonism of EP2
Sequence of EP2 receptor (P43116 whole entry): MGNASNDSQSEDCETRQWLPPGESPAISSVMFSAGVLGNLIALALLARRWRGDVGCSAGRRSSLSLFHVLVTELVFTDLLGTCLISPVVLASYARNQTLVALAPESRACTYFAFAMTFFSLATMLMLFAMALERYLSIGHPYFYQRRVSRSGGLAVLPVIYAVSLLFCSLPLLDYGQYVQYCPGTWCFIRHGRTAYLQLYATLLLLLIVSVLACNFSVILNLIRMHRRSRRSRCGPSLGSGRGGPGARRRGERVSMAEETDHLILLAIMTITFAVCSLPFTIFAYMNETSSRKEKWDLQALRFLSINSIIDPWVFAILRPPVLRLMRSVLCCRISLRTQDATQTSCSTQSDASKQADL

IP receptor = IP receptor (Homo sapiens, UniProt P43119); test: cell-based
Sequence of IP receptor (P43119 whole entry): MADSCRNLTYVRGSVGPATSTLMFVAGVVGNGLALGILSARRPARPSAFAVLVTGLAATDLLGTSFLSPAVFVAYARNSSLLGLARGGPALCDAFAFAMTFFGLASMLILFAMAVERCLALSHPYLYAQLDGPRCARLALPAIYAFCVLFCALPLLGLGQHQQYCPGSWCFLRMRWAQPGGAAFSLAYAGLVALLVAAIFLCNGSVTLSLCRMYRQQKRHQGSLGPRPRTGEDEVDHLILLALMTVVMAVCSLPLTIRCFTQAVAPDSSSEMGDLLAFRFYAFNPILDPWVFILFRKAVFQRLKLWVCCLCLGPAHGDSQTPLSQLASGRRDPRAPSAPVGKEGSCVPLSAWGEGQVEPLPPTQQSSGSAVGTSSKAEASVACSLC

β2-Adrenergic receptors = test: β2-adrenergic receptor counter assay; conditions: up to 40 µM, agonist saturated conditions
[1] = Aqueous solubility in PBS buffer by nephelometry; conditions: pH 7
[2] = Metabolic stability in pooled mouse liver microsomes; conditions: 1 and 10 µM
[3] = Metabolic stability in pooled human liver microsomes; conditions: 1 and 10 µM
[4] = Pharmacokinetics and brain permeability in female C57Bl/6 mice; conditions: 1h and 2h
P388D1 macrophages = test: Butaprost-induced mRNA expression of inflammatory markers in P388D1 macrophages; assay type: cell-based

Sequence of EP4 receptor (P35408 whole entry): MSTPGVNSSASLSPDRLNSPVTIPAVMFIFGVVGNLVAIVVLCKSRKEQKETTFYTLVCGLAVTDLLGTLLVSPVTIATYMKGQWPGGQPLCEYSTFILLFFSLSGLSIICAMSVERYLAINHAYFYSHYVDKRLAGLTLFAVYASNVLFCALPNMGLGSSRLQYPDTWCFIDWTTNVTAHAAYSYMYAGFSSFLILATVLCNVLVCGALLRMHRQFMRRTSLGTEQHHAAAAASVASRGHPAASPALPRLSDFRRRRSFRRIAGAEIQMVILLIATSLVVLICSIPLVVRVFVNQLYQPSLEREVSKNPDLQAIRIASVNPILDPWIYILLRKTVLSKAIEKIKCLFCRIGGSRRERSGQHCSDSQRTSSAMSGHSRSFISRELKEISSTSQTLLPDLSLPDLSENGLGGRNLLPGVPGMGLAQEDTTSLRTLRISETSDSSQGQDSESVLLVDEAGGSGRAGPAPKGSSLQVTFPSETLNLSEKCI

For `COc1cc(NS(=O)(=O)c2ccc(NC(=S)NC(=O)c3sc4cc(F)ccc4c3Cl)cc2)nc(OC)n1` [compound 8], the “KB (µM) EP4” value (EP4 receptor; Schild KB, average of 2–5 independent experiments) was “submicromolar”.
For `CCc1nnc(NS(=O)(=O)c2ccc(NC(=S)NC(=O)/C=C/c3ccc(F)cc3)cc2)s1` [TG6-129, (E)-N-((4-(N-(5-ethyl-1,3,4-thiadiazol-2-yl)sulfamoyl)phenyl)carbamothioyl)-3-(4-fluorophenyl)acrylamide], the Schild regression slope (EP2 receptor) was 1.2, the “inhibition of EP4 receptor” value (EP4 receptor) was “without affecting” and the “inhibition of EP4 receptor” value (EP4 receptor; listed as 1) was “no inhibition”. For the same compound, the Kb (IP receptor) was 199 nM, the “inhibition of β2-Adrenergic receptor” value (β2-Adrenergic receptors) was “without affecting” and the “inhibition of β2-Adrenergic receptor” value (β2-Adrenergic receptors; listed as 1) was “no inhibition”. The solubility [1] was 145 µM (≈ 71.3 µg/mL), the “compound remaining at 60 minutes” value [2] was 40–60% and the “compound remaining at 60 minutes” value [3] was 40–60%. For the same compound, the “compound found in brain samples” value ([4]; 5mg/kg ip) was “no detectable amount” and the “compound found in brain samples” value ([4]; 10 mg/kg oral gavage) was “no detectable amount”.
With `CCCC1([C@H](O)C/C=C/[C@H]2[C@H](O)CC(=O)[C@@H]2CCCCCCC(=O)OC)CCC1` [butaprost] the “mRNA expression of COX-2, IL-1β, IL-6, IL-12 (p40), IL-17, IL-23, TNF-α” value (P388D1 macrophages; butaprost 10 µM, 2 h) was “significantly elevated” and the “expression of EP2 receptor mRNA” value (P388D1 macrophages; butaprost, 2h) was “only a slight increase”.
For `COc1cc(NS(=O)(=O)c2ccc(NC(=S)NC(=O)/C=C/c3ccc(F)cc3)cc2)ncn1` [compound 6], the “compound remaining at 60 minutes” value [2] was 40–60% and the “compound remaining at 60 minutes” value [3] was 40–60%.
